Data set [1] is described as follows: (§1) Evaluation of pharmacokinetic parameters for Drosporine following multiple co-administration of 3 mg Drosporine tablets and […] ethinyl estradiol to 12 healthy female subjects. Details: dose 3 mg, route oral. The settings on record: human, in vivo, dose 3 mg, dosed compound id 30, dosed compound name DROSPIRENONE, gender female, regimen Once daily, route oral, study dosing duration 21 days, tissue Serum. Format: ADME, organism-based.

For a further data set, the system named is Homo sapiens. Described as §1. The data set is classed as ADME, organism-based. Details: dose 3 mg, route oral. To be noted: in vivo, po, dosed compound id 30, dosed compound name DROSPIRENONE, gender female, regimen Once daily, study dosing duration 21 days, tissue Serum.
Setting [2] is: dose 3 mg, sampling time1 21 day.

The term Tmax denotes the time at which the peak concentration occurs. As usually defined, the half-life is the time needed for the level to fall by half in the phase considered. What is called Cmax is the highest concentration seen after dosing.

“And” between values parts separate entries of the source, which are not always exact repeats. Equal entries are not always repeated.

For the compound `C[C@]12CCC(=O)C=C1[C@@H]1C[C@@H]1[C@H]1[C@@H]3[C@@H]4C[C@@H]4[C@@]4(CCC(=O)O4)[C@@]3(C)CC[C@@H]12` [DROSPIRENONE], in data set [1] (sampling time1 1 day), the time of peak concentration (Tmax) is 1.7 h. Moreover, the half-life in data set [1] (sampling time1 21 day) is 32.5 h. Moreover, in the data set with Homo sapiens (setting [2]), the Tmax was 1.8 h and 1.6 h; the t1/2 came out at 31.4 h. Besides, in the data set on Homo sapiens (sampling time1 1 day), the “AUC(0-24)” value turned out to be 288 ng·h/mL and the Cmax is 36.9 ng/mL. Further, in the data set on Homo sapiens (sampling time1 21 day), the “AUC(0-24)” value was 957 ng.hr/mL [middle of 4 runs] and the peak concentration (Cmax) is 84.2 ng/mL [middle of 4 runs].

Values taken from ChEMBL document CHEMBL3832088, “DailyMed|setid=abbf31eb-9966-411a-9c5d-91025ff7a782 | ZARAH- drospirenone and ethinyl estradiol | Watson Pharma, Inc”.
